Experimental data published in patent US20260165323A1, “USE OF STROBILURIN TYPE COMPOUNDS FOR COMBATING PHYTOPATHOGENIC FUNGI CONTAINING AN AMINO ACID SUBSTITUTION F129L IN THE MITOCHONDRIAL CYTOCHROME B PROTEIN CONFERRING RESISTANCE TO QO […]” (priority 2022, published 2026).

tested on: Phakopsora pachyrhizi containing the amino acid substitution F129L in the mitochondrial cytochrome b protein; test: Use Example 1: protective control of soybean rust on soybeans (PHAKPA P2); assay type: in vivo; conditions: inoculated 2 days after spraying, 4 ppm, % diseased leaf area
Method: (§1) The compound was dissolved in a mixture of acetone and/or dimethylsulfoxide and the wetting agent/emulsifier Wettol, which is based on ethoxylated alkylphenoles, in a ratio (volume) solvent-emulsifier of 99 to 1 to give a total volume of 5 ml. Subsequently, water was added to total volume of 100 ml. This stock solution was then diluted with the described solvent-emulsifier-water mixture to the final concentration given in the tables below.
Use Example 1. Protective Control of Soybean Rust on Soybeans Caused by Phakopsora pachyrhizi (PHAKPA P2)
(§2) Leaves of potted soybean seedlings were sprayed to run-off with the previously described spray solution, containing the concentration of active ingredient or their mixture as described below. The plants were allowed to air-dry. The trial plants were cultivated for 2 days in a greenhouse chamber at 23-27° C. and a relative humidity between 60 and 80%. Then the plants were inoculated with spores of Phakopsora pachyrhizi. The strain used contains the amino acid substitution F129L in the mitochondrial cytochrome b protein conferring resistance to Qo inhibitors. To ensure the success the artificial inoculation, the plants were transferred to a humid chamber with a relative humidity of about 95% and 20 to 24° C. for 24 hr. The trial plants were cultivated for up to 14 days in a greenhouse chamber at 23 to 27° C. and a relative humidity between 60 and 80%. The extent of fungal attack on the leaves was visually assessed as % diseased leaf area, the disease level of untreated controls was usually higher than 85%.

SMILES | % PHAKPA (F129L) Disease level P2 at 4 ppm [%]
CNC(=O)/C(=N/OC)c1cccc(Cl)c1CO/N=C(\COC)c1cccc(Cl)c1F [compound 99] | 21
CCOC/C(=N\OCc1c(Cl)cccc1/C(=C\OC)C(=O)OC)c1cccc(Cl)c1 [compound 38] | 23
CCOC/C(=N\OCc1c(Cl)cccc1/C(=N\OC)C(=O)NC)c1c(F)cc(F)cc1F [compound 32] | 12
CO/C=C(/C(=O)OC)c1cccc(Cl)c1CO/N=C(\COC)c1cc(F)c(F)c(F)c1 [compound 67] | 10
CO/C=C(/C(=O)OC)c1cccc(Cl)c1CO/N=C(\COC)c1ccc(F)c(F)c1 [compound 92] | 0
CO/C=C(/C(=O)OC)c1cccc(Cl)c1CO/N=C(\COC)c1cccc(C#N)c1 [compound 116] | 31
CNC(=O)/C(=N/OC)c1cccc(Cl)c1CO/N=C(\COC)c1ccc(F)cc1F [compound 84] | 5

same assay, conditions: inoculated 2 days after spraying, 16 ppm, % diseased leaf area

SMILES | % PHAKPA (F129L) Disease level P2 at 16 ppm [%]
CNC(=O)/C(=N/OC)c1cccc(Cl)c1CO/N=C(\COC)c1cccc(Cl)c1F [compound 99] | 1
CCOC/C(=N\OCc1c(Cl)cccc1/C(=C\OC)C(=O)OC)c1cccc(Cl)c1 [compound 38] | 3
CCOC/C(=N\OCc1c(Cl)cccc1/C(=N\OC)C(=O)NC)c1c(F)cc(F)cc1F [compound 32] | 0
CO/C=C(/C(=O)OC)c1cccc(Cl)c1CO/N=C(\COC)c1cc(F)c(F)c(F)c1 [compound 67] | 0
CO/C=C(/C(=O)OC)c1cccc(Cl)c1CO/N=C(\COC)c1ccc(F)c(F)c1 [compound 92] | 0
CO/C=C(/C(=O)OC)c1cccc(Cl)c1CO/N=C(\COC)c1cccc(C#N)c1 [compound 116] | 3
CNC(=O)/C(=N/OC)c1cccc(Cl)c1CO/N=C(\COC)c1ccc(F)cc1F [compound 84] | 0

tested on: Puccinia recondita; test: Use Example 4: preventative control of brown rust on wheat (PUCCRT P7); assay type: in vivo; conditions: inoculated seven days after spraying, 4 ppm, % diseased leaf area
Method: as §1
Use Example 4. Preventative Control of Brown Rust on Wheat Caused by Puccinia recondita (PUCCRT P7)
The first two developed leaves of potted wheat seedling were sprayed to run-off with previously described spray solution, containing the concentration of active ingredient or their mixture as described below. Seven days later the plants were dusted with spores of Puccinia recondita. To ensure the success of the artificial inoculation, the plants were transferred to a humid chamber without light and a relative humidity of 95 to 99% and 20 to 24° C. for 24 h. Then the trial plants were cultivated for 9 to 11 days in a greenhouse chamber at 20 to 24° C. and a relative humidity between 65 and 70%. The extent of fungal attack on the leaves was visually assessed as % diseased leaf area, the disease level of untreated controls was usually between 80 and 100%.

SMILES | % PUCCRT Disease level P7 at 4 ppm [%]
CNC(=O)/C(=N/OC)c1cccc(Cl)c1CO/N=C(\COC)c1cccc(Cl)c1F [compound 99] | 42
CCOC/C(=N\OCc1c(Cl)cccc1/C(=C\OC)C(=O)OC)c1cccc(Cl)c1 [compound 38] | 20
CCOC/C(=N\OCc1c(Cl)cccc1/C(=N\OC)C(=O)NC)c1c(F)cc(F)cc1F [compound 32] | 53
CO/C=C(/C(=O)OC)c1cccc(Cl)c1CO/N=C(\COC)c1cc(F)c(F)c(F)c1 [compound 67] | 4
CO/C=C(/C(=O)OC)c1cccc(Cl)c1CO/N=C(\COC)c1ccc(F)c(F)c1 [compound 92] | 3
CO/C=C(/C(=O)OC)c1cccc(Cl)c1CO/N=C(\COC)c1cccc(C#N)c1 [compound 116] | 15
CNC(=O)/C(=N/OC)c1cccc(Cl)c1CO/N=C(\COC)c1ccc(F)cc1F [compound 84] | 35

same assay, conditions: inoculated seven days after spraying, 16 ppm, % diseased leaf area

SMILES | % PUCCRT Disease level P7 at 16 ppm [%]
CNC(=O)/C(=N/OC)c1cccc(Cl)c1CO/N=C(\COC)c1cccc(Cl)c1F [compound 99] | 7
CCOC/C(=N\OCc1c(Cl)cccc1/C(=C\OC)C(=O)OC)c1cccc(Cl)c1 [compound 38] | 2
CCOC/C(=N\OCc1c(Cl)cccc1/C(=N\OC)C(=O)NC)c1c(F)cc(F)cc1F [compound 32] | 30
CO/C=C(/C(=O)OC)c1cccc(Cl)c1CO/N=C(\COC)c1cc(F)c(F)c(F)c1 [compound 67] | 3
CO/C=C(/C(=O)OC)c1cccc(Cl)c1CO/N=C(\COC)c1ccc(F)c(F)c1 [compound 92] | 3
CO/C=C(/C(=O)OC)c1cccc(Cl)c1CO/N=C(\COC)c1cccc(C#N)c1 [compound 116] | 3
CNC(=O)/C(=N/OC)c1cccc(Cl)c1CO/N=C(\COC)c1ccc(F)cc1F [compound 84] | 5

tested on: Phakopsora pachyrhizi containing the amino acid substitution F129L in the mitochondrial cytochrome b protein; test: Use Example 2: protective control of soybean rust on soybeans (PHAKPA P6); assay type: in vivo; conditions: inoculated six days after spraying, 4 ppm, % diseased leaf area
Method: as §1
Use Example 2. Protective Control of Soybean Rust on Soybeans Caused by Phakopsora Pachyrhizi (PHAKPA P6)
as §2, with “active ingredient as described” for “active ingredient or their mixture as described”, “cultivated for six days in” for “cultivated for 2 days in”, “95% and 23 to 27°” for “95% and 20 to 24°”, “23 to 27° C. for” for “20 to 24° C. for”

SMILES | % PHAKPA (F129L) Disease level P6 at 4 ppm [%]
CNC(=O)/C(=N/OC)c1cccc(Cl)c1CO/N=C(\COC)c1cccc(Cl)c1F [compound 99] | 17
CCOC/C(=N\OCc1c(Cl)cccc1/C(=C\OC)C(=O)OC)c1cccc(Cl)c1 [compound 38] | 50
CCOC/C(=N\OCc1c(Cl)cccc1/C(=N\OC)C(=O)NC)c1c(F)cc(F)cc1F [compound 32] | 33
CO/C=C(/C(=O)OC)c1cccc(Cl)c1CO/N=C(\COC)c1cc(F)c(F)c(F)c1 [compound 67] | 14
CO/C=C(/C(=O)OC)c1cccc(Cl)c1CO/N=C(\COC)c1ccc(F)c(F)c1 [compound 92] | 12
CO/C=C(/C(=O)OC)c1cccc(Cl)c1CO/N=C(\COC)c1cccc(C#N)c1 [compound 116] | 48
CNC(=O)/C(=N/OC)c1cccc(Cl)c1CO/N=C(\COC)c1ccc(F)cc1F [compound 84] | 2

same assay, conditions: inoculated six days after spraying, 16 ppm, % diseased leaf area

SMILES | % PHAKPA (F129L) Disease level P6 at 16 ppm [%]
CNC(=O)/C(=N/OC)c1cccc(Cl)c1CO/N=C(\COC)c1cccc(Cl)c1F [compound 99] | 2
CCOC/C(=N\OCc1c(Cl)cccc1/C(=C\OC)C(=O)OC)c1cccc(Cl)c1 [compound 38] | 6
CCOC/C(=N\OCc1c(Cl)cccc1/C(=N\OC)C(=O)NC)c1c(F)cc(F)cc1F [compound 32] | 1
CO/C=C(/C(=O)OC)c1cccc(Cl)c1CO/N=C(\COC)c1cc(F)c(F)c(F)c1 [compound 67] | 0
CO/C=C(/C(=O)OC)c1cccc(Cl)c1CO/N=C(\COC)c1ccc(F)c(F)c1 [compound 92] | 0
CO/C=C(/C(=O)OC)c1cccc(Cl)c1CO/N=C(\COC)c1cccc(C#N)c1 [compound 116] | 11
CNC(=O)/C(=N/OC)c1cccc(Cl)c1CO/N=C(\COC)c1ccc(F)cc1F [compound 84] | 0

tested on: Puccinia recondita; test: Use Example 3: curative control of brown rust on wheat (PUCCRT K4); assay type: in vivo; conditions: 4 ppm, % diseased leaf area
Method: as §1
Use Example 3. Curative Control of Brown Rust on Wheat Caused by Puccinia recondita (PUCCRT K4)
The first two developed leaves of potted wheat seedling were dusted with spores of Puccinia recondita. To ensure the success the artificial inoculation, the plants were transferred to a humid chamber without light and a relative humidity of 95 to 99% and 20 to 24° C. for 24 h. The next 3 days the plants were cultivated in a greenhouse chamber at 20 to 24° C. and a relative humidity between 65 and 70%. Then the plants were sprayed to run-off with previously described spray solution, containing the concentration of active ingredient or their mixture as described below. The plants were allowed to air-dry. Then the trial plants were cultivated for 5 to 7 days in a greenhouse chamber at 20 to 24° C. and a relative humidity between 65 and 70%. The extent of fungal attack on the leaves was visually assessed as % diseased leaf area, the disease level of untreated controls was usually between 80 and 100%.

SMILES | % PUCCRT Disease level K4 at 4 ppm [%]
CNC(=O)/C(=N/OC)c1cccc(Cl)c1CO/N=C(\COC)c1cccc(Cl)c1F [compound 99] | 82
CCOC/C(=N\OCc1c(Cl)cccc1/C(=C\OC)C(=O)OC)c1cccc(Cl)c1 [compound 38] | 50
CCOC/C(=N\OCc1c(Cl)cccc1/C(=N\OC)C(=O)NC)c1c(F)cc(F)cc1F [compound 32] | 77
CO/C=C(/C(=O)OC)c1cccc(Cl)c1CO/N=C(\COC)c1cc(F)c(F)c(F)c1 [compound 67] | 36
CO/C=C(/C(=O)OC)c1cccc(Cl)c1CO/N=C(\COC)c1ccc(F)c(F)c1 [compound 92] | 6
CO/C=C(/C(=O)OC)c1cccc(Cl)c1CO/N=C(\COC)c1cccc(C#N)c1 [compound 116] | 5
CNC(=O)/C(=N/OC)c1cccc(Cl)c1CO/N=C(\COC)c1ccc(F)cc1F [compound 84] | 58

same assay, conditions: 16 ppm, % diseased leaf area

SMILES | % PUCCRT Disease level K4 at 16 ppm [%]
CNC(=O)/C(=N/OC)c1cccc(Cl)c1CO/N=C(\COC)c1cccc(Cl)c1F [compound 99] | 10
CCOC/C(=N\OCc1c(Cl)cccc1/C(=C\OC)C(=O)OC)c1cccc(Cl)c1 [compound 38] | 8
CCOC/C(=N\OCc1c(Cl)cccc1/C(=N\OC)C(=O)NC)c1c(F)cc(F)cc1F [compound 32] | 57
CO/C=C(/C(=O)OC)c1cccc(Cl)c1CO/N=C(\COC)c1cc(F)c(F)c(F)c1 [compound 67] | 3
CO/C=C(/C(=O)OC)c1cccc(Cl)c1CO/N=C(\COC)c1ccc(F)c(F)c1 [compound 92] | 0
CO/C=C(/C(=O)OC)c1cccc(Cl)c1CO/N=C(\COC)c1cccc(C#N)c1 [compound 116] | 0
CNC(=O)/C(=N/OC)c1cccc(Cl)c1CO/N=C(\COC)c1ccc(F)cc1F [compound 84] | 9
